Source: paper PMC8284461, “Piperidine-4-Carboxamides Target DNA Gyrase in Mycobacterium abscessus” (Antimicrobial Agents and Chemotherapy, 2021)
≈ marks a conversion by molar mass, not a printed value.

Tests used:
[1] = tested on: M. abscessus subsp. abscessus M199; experiment: MIC, broth microdilution; format: cell-based, Mycobacterium abscessus; settings: Mycobacteroides abscessus, 72 h, 90% growth inhibition, 3 days
Description: (§1) MIC was determined using the broth microdilution method in 96-well plates as described previously ([47]). Briefly, a 10-point 2-fold serial dilution of compounds was performed in 96-well plates (Costar 3370; Corning, USA) starting at twice the desired highest concentration. […] One hundred microliters of the bacterial suspension was seeded onto the 96-well plates containing 100 μl of the serially diluted compounds to give a final volume of 200 μl in each well with the final OD600 of 0.005. The plates were sealed with parafilm, placed onto wet paper towels in a lock-lock box and incubated for 3 days at 37°C with orbital shaking at 90 rpm. […] Absorbance values at day 3 were subtracted from the day 0 readout. Percent growth inhibition was calculated by dividing the absolute absorbance value of treated cells with untreated control and multiplying by 100. CLR was included in all MIC experiments as a positive control to monitor assay reproducibility. MIC was defined as 90% of growth inhibition relative to untreated controls.

[2] = tested on: M. abscessus subsp. bolletii M506; experiment: MIC, broth microdilution; format: cell-based, Mycobacterium abscessus; settings: Mycobacteroides abscessus, 72 h, 90% growth inhibition, 3 days
Description: as §1

[3] = tested on: M. abscessus subsp. bolletii CCUG 50184T; experiment: MIC, broth microdilution; format: cell-based, Mycobacterium abscessus; settings: Mycobacteroides abscessus, 72 h, 90% growth inhibition, 3 days
Description: as §1

[4] = tested on: M. abscessus subsp. abscessus Bamboo; experiment: MIC, broth microdilution; format: cell-based, Mycobacterium abscessus; settings: Mycobacteroides abscessus, 72 h; abscessus Bamboo wild type; 90% growth inhibition, 3 days
Description: as §1

[5] = tested on: M. abscessus subsp. abscessus M421; experiment: MIC, broth microdilution; format: cell-based, Mycobacterium abscessus; settings: Mycobacteroides abscessus, 72 h, 90% growth inhibition, 3 days
Description: as §1

[6] = tested on: M. abscessus subsp. abscessus M337; experiment: MIC, broth microdilution; format: cell-based, Mycobacterium abscessus; settings: Mycobacteroides abscessus, 72 h, 90% growth inhibition, 3 days
Description: as §1

[7] = tested on: M. abscessus subsp. abscessus M9; experiment: MIC, broth microdilution; format: cell-based, Mycobacterium abscessus; settings: Mycobacteroides abscessus, 72 h, 90% growth inhibition, 3 days
Description: as §1

[8] = tested on: M. abscessus subsp. massiliense M111; experiment: MIC, broth microdilution; format: cell-based, Mycobacterium abscessus; settings: Mycobacteroides abscessus, 72 h, 90% growth inhibition, 3 days
Description: as §1

[9] = tested on: M. abscessus subsp. bolletii M232; experiment: MIC, broth microdilution; format: cell-based, Mycobacterium abscessus; settings: Mycobacteroides abscessus, 72 h, 90% growth inhibition, 3 days
Description: as §1

[10] = target: recombinant M. abscessus wild-type DNA gyrase (Mycobacteroides abscessus, UniProt B1ME45+B1ME58); experiment: biochemical; design: species or system Mycobacterium abscessus
Chain of recombinant M. abscessus wild-type DNA gyrase (B1ME58 entry or part of it): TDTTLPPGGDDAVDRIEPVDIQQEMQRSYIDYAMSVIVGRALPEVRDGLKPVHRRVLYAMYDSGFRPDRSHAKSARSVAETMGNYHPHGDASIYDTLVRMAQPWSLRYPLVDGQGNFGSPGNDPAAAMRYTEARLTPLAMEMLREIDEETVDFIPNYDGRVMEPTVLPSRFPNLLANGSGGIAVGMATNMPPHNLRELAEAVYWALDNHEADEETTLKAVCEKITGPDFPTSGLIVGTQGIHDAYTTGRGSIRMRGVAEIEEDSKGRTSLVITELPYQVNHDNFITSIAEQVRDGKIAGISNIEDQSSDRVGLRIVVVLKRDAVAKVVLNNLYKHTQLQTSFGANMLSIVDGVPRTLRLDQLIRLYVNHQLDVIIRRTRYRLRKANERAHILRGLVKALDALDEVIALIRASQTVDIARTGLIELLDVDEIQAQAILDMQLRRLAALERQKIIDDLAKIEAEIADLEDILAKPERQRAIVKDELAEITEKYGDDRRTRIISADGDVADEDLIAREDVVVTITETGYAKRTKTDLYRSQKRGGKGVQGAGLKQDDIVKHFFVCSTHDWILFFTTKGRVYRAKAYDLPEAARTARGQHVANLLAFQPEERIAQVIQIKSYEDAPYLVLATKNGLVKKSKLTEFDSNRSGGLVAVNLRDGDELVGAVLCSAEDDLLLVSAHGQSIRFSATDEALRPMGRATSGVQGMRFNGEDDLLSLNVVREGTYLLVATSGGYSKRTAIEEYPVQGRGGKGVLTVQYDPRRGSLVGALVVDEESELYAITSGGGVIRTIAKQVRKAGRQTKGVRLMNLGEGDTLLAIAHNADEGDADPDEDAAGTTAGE
Chain of recombinant M. abscessus wild-type DNA gyrase (B1ME45 entry or part of it): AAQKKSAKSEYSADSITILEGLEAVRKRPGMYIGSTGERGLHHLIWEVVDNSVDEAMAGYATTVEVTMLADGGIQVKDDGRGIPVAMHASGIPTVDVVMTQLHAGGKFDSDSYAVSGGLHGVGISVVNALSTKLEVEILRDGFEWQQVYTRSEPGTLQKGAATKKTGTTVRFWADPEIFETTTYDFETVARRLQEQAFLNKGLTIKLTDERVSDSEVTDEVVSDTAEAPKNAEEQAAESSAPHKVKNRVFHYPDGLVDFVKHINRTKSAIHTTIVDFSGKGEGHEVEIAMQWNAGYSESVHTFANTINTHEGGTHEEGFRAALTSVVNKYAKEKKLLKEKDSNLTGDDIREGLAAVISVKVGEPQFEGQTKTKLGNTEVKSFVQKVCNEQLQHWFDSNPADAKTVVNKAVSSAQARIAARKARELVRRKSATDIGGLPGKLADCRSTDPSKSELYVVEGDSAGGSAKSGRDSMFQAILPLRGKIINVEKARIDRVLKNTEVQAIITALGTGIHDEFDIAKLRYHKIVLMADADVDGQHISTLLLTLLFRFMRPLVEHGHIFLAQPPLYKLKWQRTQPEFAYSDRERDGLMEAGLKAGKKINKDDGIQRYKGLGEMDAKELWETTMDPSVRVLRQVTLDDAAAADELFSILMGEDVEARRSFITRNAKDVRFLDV

[11] = tested on: M. abscessus subsp. abscessus Bamboo 844^r-3 (GyrB S473W); experiment: MIC, resistant mutant; format: cell-based, Mycobacterium abscessus; settings: Mycobacteroides abscessus
[12] = tested on: M. abscessus complex strains; experiment: MIC across reference strains and clinical isolates; format: cell-based, Mycobacterium abscessus
Description: as §1

Plasma stability = format: in vitro ADME, humans; settings: human plasma, 37°C, 1 μg/ml
Description: The plasma stability assays were carried out using plasma from female CD-1 mice, New Zealand white rabbits, rhesus monkeys, and humans containing K2EDTA anticoagulant (Bioreclamation). Stability samples consisted of 5 μl of stock compound solution in 50:50 ACN/water and 95 μl of plasma to a final concentration of 1 μg/ml. The samples were incubated at 37°C with shaking; 10 μl of plasma was removed at each time point and combined with 100 μl of ACN/methanol 50:50 protein precipitation solvent containing internal standard (10 ng/ml verapamil). Chromatography for metabolite identification was performed the same as specified for pharmacokinetic sample analysis. Full scan total ion chromatograms (TIC) of plasma extracts were acquired using a Q Exactive high-resolution mass spectrometer (QE-HRMS) at 70,000 mass resolution. Thermo Fisher Compound Discoverer software was used to assist in identifying the 844-TFM metabolites from the QE-HRMS TIC mass spectrum. Figure S2 in the supplemental material illustrates the extracted ion chromatograms (XIC) of 844-TFM and the metabolites using 5 ppm mass accuracy before and after 12 h of incubation in mouse plasma.

[13] = tested on: M. abscessus subsp. abscessus ATCC 19977; experiment: Time-concentration kill assay, planktonic cultures; format: cell-based, Mycobacterium abscessus; settings: 1×, 4×, 8× MIC; CFU after 2 and 3 days
Description: At 0, 2, and 3 days, tubes were vortexed, and 20 μl of the cultures was transferred to round-bottom 96-well plates containing 180 μl of phosphate-buffered saline (PBS) (10010023; Thermo Fisher, USA) with 0.025% Tween 80 (PBS/Tween 80) for 10-fold serial dilution. To prevent compound carryover effects, we plated out serially diluted samples onto 7H10 agar supplemented with 0.4% activated charcoal (C9154; Sigma-Aldrich, USA) for all time points as described ([48]). CFU were enumerated after 4 days of incubation at 37°C.

COc1ccc2nccc(NC(=O)C3CCN(CCc4ccc(C(F)(F)F)cc4)CC3)c2n1 [844-TFM]
MIC [1]: 6.3 µM (≈ 2.89 µg/mL)
MIC [2]: 3.1 µM (≈ 1.42 µg/mL)
MIC [3]: 2 µM (≈ 0.917 µg/mL)
MIC [4]: 1.5 µM (≈ 0.688 µg/mL)
MIC [5]: 1.6 µM (≈ 0.734 µg/mL)
MIC [6]: 3.1 µM (≈ 1.42 µg/mL)
MIC [7]: 3.1 µM (≈ 1.42 µg/mL)
MIC [8]: 6.3 µM (≈ 2.89 µg/mL)
MIC [9]: 1.6 µM (≈ 0.734 µg/mL)
IC50 fold lower than the IC50 of parental 844 [10]: 2.4 fold
IC50 ([10]; wild-type DNA gyrase, relaxed pBR322 substrate, read-out: IC50, supercoiling activity): 1900 nM
MIC [11]: 5 µM (≈ 2.29 µg/mL)
MIC ([12]; Mycobacteroides abscessus, reference strains and clinical isolates of Table 1, read-out: MICs ranging across the M. abscessus complex strains): 1.5 to 6 µM (≈ 0.688 to 2.75 µg/mL)
fold more potent than 844 ([12]; whole-cell potency relative to 844): ~8 fold
remaining after 24 h (Plasma stability): approximately 80%
bactericidal activity in planktonic cultures [13]: bactericidal
